Patent US20260232815A1, “COPOLYMER-DRUG CONJUGATE FOR TREATMENT OF TUMOURS” (Danmarks Tekniske Universitet, priority 2023, published 2026)

System: Murine colon carcinoma CT26
Test: Antitumour efficacy after intratumoral treatment of CT26 tumours
Format: in vivo, Balb/cJRj mice
Experimental: Healthy Balb/cJRj mice were injected with 100 μL of Murine colon carcinoma CT26 cancer cells (3×105) in RPMI media subcutaneously on the right flank. Mice bearing tumors with volumes between 50 and 200 mm^3 were randomized and rearranged into new cages by blocking for initial tumor volume, and each cage received one of the four treatments described in Table 2 administered intratumorally (50 μL). A total of 3 injections, separated by 7 days each, were made for each treatment.
83 days after the first tumor inoculation, the surviving mice were re-challenged by a second inoculation of CT26 cancers cells (same dose) on the left flank of the mice along with a control group getting their first inoculation. The mice were monitored for weight and their tumors were measured using an electronic caliper twice a week, and fluorescence imaging was performed at regular intervals for all formulations containing Cy7 moieties. […] Humane endpoints included general signs of misthriving mice, significant weight loss (15% of initial weight or 10% overnight weight loss), or presence of tumor wounds larger than 8 mm.

## CCOCc1nc2c(N)nc3ccccc3c2n1CCCN [TLR7/8a, 4-Amino-2-(ethoxymethyl)-1H-imidazo[4,5-c]quinoline-1-propanamine]
Intratumoral treatment
  antitumour activity / improvement versus control: potential minor improvement in tumour treatment compared to the control
mouse, in vivo
  averaged slope coefficient for the tumour growth plots (tumour growth rate): positive
Six mice per group, 3 intratumoral injections 7 days apart
  mice recovered from the tumour: two out of six mice recovered
